Peptide text beside a SMILES is read from it.
System: PC12 cells
Assay: Cell proliferation side effect, MTS assay
Type: cell-based
Conditions: peptide 1 pM to 0.5 nM, 48 hours, FIG. 4
Method: Side effects such as cell proliferation were determined for the three peptides (ML1-L2, ML1-K2, and ML1-R2) prepared in Example 4.
In detail, to determine cell proliferation degree, an MTS assay (CellTiter 96 Aqueous One Solution Cell Proliferation Assay, Promega, Madison, Wis., USA) was performed. […] The initial number of cells (0 hour) and the number of cells after 48 hours were counted. Intracellular soluble formazan produced by cell reduction was determined by recording absorbance of each 96-well plate at a wavelength of 490 nm using a VERSA MAX.

SMILES | cell proliferation rate (side effect)
CC(C)C[C@H](NC(=O)[C@@H](NC(=O)[C@@H](NC(=O)[C@H](CC(C)C)NC(=O)[C@H](CO)NC(=O)[C@H](CCCNC(=N)N)NC(=O)[C@H](CC(C)C)NC(=O)CNC(=O)[C@H](CO)NC(=O)[C@@H](NC(=O)[C@H](C)NC(=O)[C@H](CCCCN)NC(=O)[C@H](CC(=O)O)NC(=O)[C@@H](NC(=O)[C@H](Cc1c[nH]cn1)NC(=O)[C@@H](N)CC(C)C)C(C)C)C(C)C)[C@@H](C)O)[C@@H](C)O)C(=O)O [ML1-L2] (H-LHVDKAVSGLRSLTTL-OH) | no side effect of cell proliferation
CC(C)C[C@H](NC(=O)CNC(=O)[C@H](CO)NC(=O)[C@@H](NC(=O)[C@H](C)NC(=O)[C@H](CCCCN)NC(=O)[C@H](CC(=O)O)NC(=O)[C@@H](NC(=O)[C@H](Cc1c[nH]cn1)NC(=O)[C@@H](N)CCCNC(=N)N)C(C)C)C(C)C)C(=O)N[C@@H](CCCNC(=N)N)C(=O)N[C@@H](CO)C(=O)N[C@@H](CC(C)C)C(=O)N[C@H](C(=O)N[C@H](C(=O)N[C@@H](CCCNC(=N)N)C(=O)O)[C@@H](C)O)[C@@H](C)O [ML1-R2] (H-RHVDKAVSGLRSLTTR-OH) | no side effect of cell proliferation

Reference: patent US10808018B2, “Erythropoietin-derived peptides and methods of protecting cells from oxidative damage induced by reactive oxygen species” (SYLUS CO., LTD., priority 2017, dated 2020)
